Measured values: patent publication US10604514B2, “6-(5-membered heteroaryl)isoquinolin-3-yl carboxamides and preparation and use thereof” (Samumed, LLC, priority 2017, dated 2020)
Like-named read-outs stand apart in the source and are kept apart here.

Legend:
[1] = tested on: Wnt activity (Sp5-Luc reporter in SW480 colon carcinoma cells); assay: Wnt activity screening assay (Sp5-Luc reporter gene assay); assay type: cell-based, human; details: for EC50: Sp5-Luc reporter, SW480 cells, 36 to 48 hours; for inhibition at 10 µM: SW480, read-out: percent inhibition at 10 μM
Method in brief: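 Compounds at 10 points (1:3 steps, top 10 μM, 0.1% DMSO final) were incubated 36 to 48 h at 37° C with stable Sp5-Luc SW480 reporter cells in 1% FBS medium. Luciferase luminescence was then read and expressed relative to DMSO-only cells. Four-parameter variable-slope fitting yielded EC50 values.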

GSK3β kinase = GSK3β kinase (Homo sapiens (Human), UniProt P49841); assay: GSK3β kinase assay (Ser/Thr 09 peptide Z-lyte, FRET); assay type: biochemical; details: method text calls the value IC50;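 also: Coumarin/fluorescein emission ratio converted to percent phosphorylation against unphosphorylated (0%) and phosphorylated (100%) controls, 1 h compound incubation at room temperature, 11-point threefold dilutions from 10 µM, run in duplicate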
[2] = tested on: Tau phosphorylation at Ser396 (pSer396), SH-SY5Y cells; assay: Tau phosphorylation at Ser396 (pSer396) in SH-SY5Y cells, ELISA/western blot; assay type: cell-based, human; details: SH-SY5Y cells, overnight (16-18 h), read-out: pSer396 Tau EC50;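 also: cell lysates probed for reduced Tau pSer396 via ELISA (colorimetric) or western blot (chemiluminescence), both with one shared pSer396 antibody, EC50 for lowering phosphorylation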
Description: Two days before treatment, cells were seeded onto 96 well plates at 5×10^4 cells/well.
Wells were visually checked for cell death or change in morphology and supernatants were tested for cytotoxicity by measurement of lactate dehydrogenase release (LDH, CytoToxOne kit, Promega) if necessary.
Cells were lysed with RIPA buffer complemented with phosphatase and protease inhibitors then lysates were spun down at 12,000 g for 10 min to remove any cellular debris. Lysates are then either directly tested for pSer396 by ELISA (Life Technology, Kit KHB7031) or loaded on NuPage Bis-Tris gels for western blot analysis. Colorimetric detection of ELISA signal is performed by Cytation3 plate reader (Biotek) and the chemiluminescence signal for HRP-linked antibodies used in western blotting is detected using a Carestream Image Station. The same pSer396 antibody is used for detection of pTau in both assays.

[3] = tested on: SW480 colon carcinoma cells; assay: Cell viability assay (CellTiter-Glo) in SW480 cells; assay type: cell-based, human; details: for EC50: cell viability, SW480 cells, four days, CellTiter-Glo; for inhibition at 10 µM: SW480, read-out: percent inhibition at 10 μM;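 as to all read-outs here: SW480 cells stably carrying an Sp5-luciferase TCF/LEF reporter, luminescent ATP signal as viability measure, DMSO-treated cells as control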
Description: Representative compounds were screened using the assay procedure to assess the effect on cell viability as described below.
SW480 colon carcinoma cells were transduced with a lentiviral vector expressing luciferase with a human Sp5 promoter consisting of a sequence of eight TCF/LEF binding sites. SW480 cells stably expressing the Sp5-Luc reporter gene and a hygromycin resistance gene were selected by treatment with 150 μg/mL of hygromycin for 7 days. These stably transduced SW480 cells were expanded in cell culture and used for all further screening activities. Each compound was dissolved in DMSO as a 10 mM stock and used to prepare compound source plates.
For the Cell Viability Assays, the cells were plated at 2,000 cells/well in 384-well plates with a DMEM medium containing 1% fetal bovine serum, and 1% Penicillin-Streptomycin and incubated for four days hours at 37° C. and 5% CO2. Eight replicates of DMSO-treated cells served as controls and cells treated with compound were performed in duplicate.
After incubation, 10 μL of CellTiter-Glo (Promega) was added to each well allowed to incubate for approximately 12 minutes.
Dose-response curves were generated and EC50 concentration values were calculated using non-linear regression curve fit in the GraphPad Prism (San Diego, Calif.) or Dotmatics' Studies Software (Bishops Stortford, UK).

[4] = tested on: LL29 cells (primary human fibroblasts derived from IPF patients), α-smooth muscle actin; assay: Inhibition of fibrotic process: αSMA in TGF-β1-treated primary human fibroblasts from IPF patients (LL29 cells); assay type: cell-based; details: for EC50: % αSMA-positive LL29 cells, TGF-β1 20 ng/mL, 4 days; for inhibition at 10 µM: read-out: percent inhibition at 10 μM
Method in brief: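 Read-out is the percentage of αSMA-positive cells by high-content imaging, excluding SYTOX green-positive dead/apoptotic cells, normalized to TGF-β1-only wells on the same plate. LL29 cells were exposed for 4 days at 37 °C to 20 ng/mL TGF-β1 plus 11-point, 2-fold compound dilutions in 0.1% DMSO.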

IL-6 = IL-6 inhibition in LPS-stimulated human peripheral blood mononuclear cells (HTRF); assay type: cell-based; details: for EC50: IL-6, LPS-stimulated huPBMCs, HTRF; for inhibition at 10 µM: read-out: percent value in parentheses below EC50 >10
Method in brief: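 EC50 from a 4-parameter fit of DMSO-normalized HTRF (665/620 nm) IL-6 signal, duplicates. Compound was added to fresh human PBMCs in 1% FBS RPMI for 2 h (top 10 μM, 3-fold, 0.25% DMSO) before 22 h stimulation with LPS at 50 ng/mL, 37 °C.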

DYRK1A kinase = DYRK1A kinase (Homo sapiens (Human), UniProt Q13627); assay: DYRK1A kinase assay (Ser/Thr 18 peptide Z-lyte, FRET); details: DYRK1A kinase; method text calls the value IC50
Description: Each compound was dissolved in DMSO as a 10 mM stock and used to prepare compound source plates.
This is a non-radioactive assay using fluorescence resonance energy transfer (FRET) between coumarin and fluorescein to detect kinase activity which is represented as a ratio of coumarin emission/fluorescein emission.
The mixture was allowed to incubate with the representative compounds for one hour at room temperature. All reactions were performed in duplicate. Unphosphorylated (“0% Control”) and phosphorylated (“100% control”) forms of Ser/Thr 18 served as control reactions. Additionally, an 11-point dose-response curve of Staurosporine (1 uM top) was run to serve as a positive compound control.
After incubation, Development Reagent A was diluted in Development Buffer then added to the reaction and allowed to further incubate for one hour at room temperature.
The percent phosphorylation was then calculated using the following formula: [1−((Em ratio×F100%)−C100%)/((C0%−C100%)+(Em ratio×(F100%−F0%)))]. Dose-response curves were generated and inhibitory concentration (IC50) values were calculated using non-linear regression curve fit in the Dotmatics' Studies Software (Bishops Stortford, UK).

GSK3β kinase, sequence (P49841 whole entry): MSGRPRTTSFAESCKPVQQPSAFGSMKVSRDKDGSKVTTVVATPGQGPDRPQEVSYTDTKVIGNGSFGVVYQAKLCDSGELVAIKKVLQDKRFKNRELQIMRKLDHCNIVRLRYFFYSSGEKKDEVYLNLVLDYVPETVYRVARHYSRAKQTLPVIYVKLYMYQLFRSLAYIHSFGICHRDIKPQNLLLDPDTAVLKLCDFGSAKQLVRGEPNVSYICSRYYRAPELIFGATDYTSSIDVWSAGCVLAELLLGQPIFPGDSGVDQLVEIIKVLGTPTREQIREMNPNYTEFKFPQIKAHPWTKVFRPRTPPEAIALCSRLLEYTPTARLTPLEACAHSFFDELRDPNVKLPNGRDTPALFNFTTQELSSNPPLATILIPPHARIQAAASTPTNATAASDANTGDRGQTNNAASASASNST

Row | Compound | EC50 (GSK3β kinase) | EC50 (DYRK1A kinase) | EC50 ([1]; Homo sapiens) | EC50 ([2]; Homo sapiens) | EC50 ([3]; Homo sapiens, 96 h) | EC50 (IL-6; Homo sapiens, PBMC) | EC50 [1] | EC50 [2] | EC50 [3] | EC50 [4] | percent inhibition of IL-6 at 10 µM (IL-6) | EC50 (IL-6) | EC50 ([4]; Homo sapiens, Fibroblast, 96 h) | inhibition at 10 µM ([1]; Homo sapiens) | inhibition at 10 µM ([3]; Homo sapiens) | inhibition at 10 µM (IL-6; Homo sapiens, PBMC) | inhibition at 10 µM ([4]; Homo sapiens, Fibroblast)
1 | Cc1ncc(-c2ccc3cnc(NC(=O)C4CCN(CC(C)(F)F)CC4)cc3c2)o1 [Compound 20, 1-(2,2-Difluoropropyl)-N-(6-(2-methyloxazol-5-yl)isoquinolin-3-yl) piperidine-4-carboxamide] | 41 nM | 5 nM | – | – | – | – | 2.64 µM | 524 nM | 3.07 µM | 480 nM | (13.4%) | > 10 µM | – | – | – | – | –
2 | Cc1nnc(-c2ccc3cnc(NC(=O)[C@H]4CC[C@H](N)CC4)cc3c2)s1 [Compound 21, trans-4-Amino-N-(6-(5-methyl-1,3,4-thiadiazol-2-yl)isoquinolin-3-yl) cyclohexane-1-carboxamide] | 35 nM | 6 nM | 0.657 µM | 566 nM | 1.06 µM | 9.37 µM | – | – | – | – | – | – | 340 nM | – | – | – | –
3 | Cc1nnc(-c2ccc3cnc(NC(=O)[C@H]4CC[C@H](N5CCOCC5)CC4)cc3c2)s1 [Compound 23, trans-N-(6-(5-Methyl-1,3,4-thiadiazol-2-yl)isoquinolin-3-yl)-4-morpholinocyclohexane-1-carboxamide] | 17 nM | 4 nM | 0.725 µM | 161 nM | 2.12 µM | 9.37 µM | – | – | – | – | – | – | 489 nM | – | – | – | –
4 | Cc1nnc(-c2ccc3cnc(NC(=O)C4CCNCC4)cc3c2)s1 [Compound 24, N-(6-(5-Methyl-1,3,4-thiadiazol-2-yl)isoquinolin-3-yl)piperidine-4-carboxamide] | 30 nM | 7 nM | 1.19 µM | 127 nM | 3.64 µM | 8.81 µM | – | – | – | – | – | – | 573 nM | – | – | – | –
5 | Cc1nnc(-c2ccc3cnc(NC(=O)C4(F)CCNCC4)cc3c2)s1 [Compound 25, 4-Fluoro-N-(6-(5-methyl-1,3,4-thiadiazol-2-yl)isoquinolin-3-yl)piperidine-4-carboxamide] | 313 nM | 14 nM | > 10 µM | 430 nM | > 10 µM | > 10 µM | – | – | – | – | – | – | 3870 nM | 34.3% | 40.3% | 8% | –
6 | Cc1nnc(-c2ccc3cnc(NC(=O)C4(F)CCN(C)CC4)cc3c2)s1 [Compound 26, 4-Fluoro-1-methyl-N-(6-(5-methyl-1,3,4-thiadiazol-2-yl)isoquinolin-3-yl) piperidine-4-carboxamide] | 524 nM | 38 nM | 6.95 µM | 167 nM | 8.53 µM | > 10 µM | – | – | – | – | – | – | > 10000 nM | – | – | 5.6% | 48.4%
7 | Cc1nnc(-c2ccc3cnc(NC(=O)C4CCN(CC(F)F)CC4)cc3c2)s1 [Compound 27, 1-(2,2-Difluoroethyl)-N-(6-(5-methyl-1,3,4-thiadiazol-2-yl)isoquinolin-3-yl)piperidine-4-carboxamide] | 11 nM | 6 nM | 0.927 µM | 104 nM | 2.09 µM | > 10 µM | – | – | – | – | – | – | 235 nM | – | – | 2.8% | –
8 | Cc1nnc(-c2ccc3cnc(NC(=O)C4CCN(CC(C)(F)F)CC4)cc3c2)s1 [Compound 28, 1-(2,2-Difluoropropyl)-N-(6-(5-methyl-1,3,4-thiadiazol-2-yl)isoquinolin-3-yl)piperidine-4-carboxamide] | 8 nM | 4 nM | 1.11 µM | 89 nM | > 10 µM | > 10 µM | – | – | – | – | – | – | 448 nM | – | 37.8% | 4.3% | –
9 | Cc1nnc(-c2ccc3cnc(NC(=O)N(C)C4CCN(C)CC4)cc3c2)s1 [Compound 29, 1-Methyl-3-(6-(5-methyl-1,3,4-thiadiazol-2-yl)isoquinolin-3-yl)-1-(1-methylpiperidin-4-yl)urea] | 337 nM | 18 nM | > 10 µM | 3400 nM | > 10 µM | > 10 µM | – | – | – | – | – | – | > 10000 nM | 45.6% | 28.2% | 6% | 3.2%

The next lines start with results.

Row | EC50 (GSK3β kinase) | EC50 (DYRK1A kinase) | EC50 ([1]; Homo sapiens) | EC50 ([2]; Homo sapiens) | EC50 ([3]; Homo sapiens, 96 h) | EC50 (IL-6; Homo sapiens, PBMC) | Compound | EC50 [1] | EC50 [2] | EC50 [3] | EC50 [4] | percent inhibition of IL-6 at 10 µM (IL-6) | EC50 (IL-6) | EC50 ([4]; Homo sapiens, Fibroblast, 96 h) | inhibition at 10 µM ([1]; Homo sapiens) | inhibition at 10 µM ([3]; Homo sapiens) | inhibition at 10 µM (IL-6; Homo sapiens, PBMC) | inhibition at 10 µM ([4]; Homo sapiens, Fibroblast)
10 | 99 nM | 27 nM | 3.31 µM | 453 nM | 6.84 µM | > 10 µM | CNC1CCN(C(=O)Nc2cc3cc(-c4nnc(C)s4)ccc3cn2)CC1 [Compound 30, N-(6-(5-Methyl-1,3,4-thiadiazol-2-yl)isoquinolin-3-yl)-4-(methylamino) piperidine-1-carboxamide] | – | – | – | – | – | – | 4110 nM | – | – | 9.3% | –
11 | 117 nM | 24 nM | 2.06 µM | 386 nM | 3.8 µM | > 10 µM | Cc1nnc(-c2ccc3cnc(NC(=O)N4CCC(N(C)C)CC4)cc3c2)s1 [Compound 31, 4-(Dimethylamino)-N-(6-(5-methyl-1,3,4-thiadiazol-2-yl)isoquinolin-3-yl) piperidine-1-carboxamide] | – | – | – | – | – | – | 3710 nM | – | – | 19.8% | –
12 | 210 nM | 17 nM | > 10 µM | 891 nM | > 10 µM | > 10 µM | Cc1nnc(-c2ccc3cnc(NC(=O)N4CCC(N(C)CC(F)F)CC4)cc3c2)s1 [Compound 32, 4-((2,2-Difluoroethyl)(methyl)amino)-N-(6-(5-methyl-1,3,4-thiadiazol-2-yl)isoquinolin-3-yl)piperidine-1-carboxamide] | – | – | – | – | – | – | 771 nM | 30.5% | 8.3% | 10.1% | –
13 | 23 nM | 9 nM | 3.5 µM | 321 nM | 4.63 µM | 9.32 µM | Cc1nnc(-c2ccc3cnc(NC(=O)N4CC[C@H](N)[C@@H](F)C4)cc3c2)s1 [Compound 33, (3S,4S)-4-amino-3-fluoro-N-(6-(5-methyl-1,3,4-thiadiazol-2-yl)isoquinolin-3-yl)piperidine-1-carboxamide] | – | – | – | – | – | – | > 10000 nM | – | – | – | 49.9%
14 | 46 nM | 15 nM | 3.36 µM | 456 nM | 3.77 µM | > 10 µM | Cc1nnc(-c2ccc3cnc(NC(=O)N4CC[C@H](N(C)C)[C@@H](F)C4)cc3c2)s1 [Compound 34, (3S,4S)-4-(dimethylamino)-3-fluoro-N-(6-(5-methyl-1,3,4-thiadiazol-2-yl)isoquinolin-3-yl)piperidine-1-carboxamide] | – | – | – | – | – | – | > 10000 nM | – | – | 7% | 48.5%
15 | 84 nM | 26 nM | 3.35 µM | 543 nM | 4.55 µM | > 10 µM | Cc1nnc(-c2ccc3cnc(NC(=O)N4CC[C@H](NC(C)C)[C@@H](F)C4)cc3c2)s1 [Compound 35, (3S,4S)-3-Fluoro-4-(isopropylamino)-N-(6-(5-methyl-1,3,4-thiadiazol-2-yl)isoquinolin-3-yl)piperidine-1-carboxamide] | – | – | – | – | – | – | 1020 nM | – | – | 9.6% | –
16 | 79 nM | 12 nM | 3.73 µM | 843 nM | 5.7 µM | > 10 µM | Cc1nnc(-c2ccc3cnc(NC(=O)N4CCOCC4)cc3c2)s1 [Compound 36, N-(6-(5-Methyl-1,3,4-thiadiazol-2-yl)isoquinolin-3-yl)morpholine-4-carboxamide] | – | – | – | – | – | – | 5200 nM | – | – | 4% | –
